Results on three compounds are retold here after patent US20040058914A1, “Combination drugs” (priority 2000, published 2004).

The subject of experiment [1] is cyclophosphamide-induced pollakiuria rats. Kind of experiment: bladder capacity of cyclophosphamide-induced pollakiuria rats under urethane anesthesia (Experimental Example 1, NK-1 + NK-2 antagonist). The following applies: for bladder capacity Before administration: cyclophosphamide 200 mg/kg i.p. the day before, baseline before i.v. drug; for bladder capacity Before administration / bladder capacity (%) increase / bladder capacity After administration: Compound No. 3 0.3 mg/kg, SR48968 10 mg/kg, mean ± standard error of 5-7 animals; for bladder capacity (%) increase / bladder capacity After administration: cyclophosphamide 200 mg/kg i.p., 10 min. after i.v. administration; for effect on bladder capacity (in words): cyclophosphamide-treated animals, i.v., sole vs combined administration at the doses of Table 1. The class given is in vivo. Here is the method: The effect afforded by the combined use of compound No. 3 and (±)SR48968 hydrochloride on the suppressive action on pollakiuria and urinary incontinence was shown by the ability to increase bladder capacity of cyclophosphamide-induced pollakiuria rats under a urethane anesthesia. Cyclophosphamide (200 mg/kg) or a solvent was intraperitoneally administered and the rats were subjected to the bladder capacity test the next day. […] The changes in the bladder capacity at 10 min. after administration were measured.
The data are expressed in mean±standard error.

For experiment [2] the test system is unchanged. As to the kind of experiment: bladder capacity of cyclophosphamide-induced pollakiuria rats under urethane anesthesia (Experimental Example 2, NK-1 antagonist + anti-cholinergic drug). The following applies: for bladder capacity Before administration: cyclophosphamide 200 mg/kg i.p. the day before, baseline before i.v. drug; for bladder capacity Before administration / bladder capacity (%) increase / bladder capacity After administration: Compound No. 3 0.3 mg/kg, oxybutynin chloride 1 mg/kg, mean ± standard error of 5-7 animals; for bladder capacity (%) increase / bladder capacity After administration: cyclophosphamide 200 mg/kg i.p., 10 min. after i.v. administration; for effect on bladder capacity (in words): cyclophosphamide-treated animals, i.v., sole vs combined administration at the doses of Table 2.

Regarding `CC(=O)NC1(c2ccccc2)CCN(CC[C@H](CN(C)C(=O)c2ccccc2)c2ccc(Cl)c(Cl)c2)CC1` (racemic) [SR48968], in experiment [1], the “bladder capacity Before administration” value was found to be 0.99 ± 0.08 mL, the “bladder capacity (%) increase” value is on record as 3.8 ± 3.3%, the “bladder capacity After administration” value amounted to 1.03 ± 0.09 mL and the “effect on bladder capacity (in words)” value is listed as “does not increase the bladder capacity”.
With `Cc1ccc(-c2c3n(c(=O)c4ncccc24)CC[C@@H](C)CN(Cc2cc(C(F)(F)F)cc(C(F)(F)F)c2)C3=O)cc1` [Compound No. 3, (9R)-7-[3,5-bis(trifluoromethyl)benzyl]-6,7,8,9,10,11-hexahydro-9-methyl-5-(4-methylphenyl)-6,13-dioxo-13H-[1,4]diazocino[2,1-g][1,7]naphthyridine], in experiment [2], the “bladder capacity Before administration” value worked out at 0.66 ± 0.08 mL, the “bladder capacity (%) increase” value was 28.6 ± 12.4%, the “bladder capacity After administration” value was determined as 0.80 ± 0.09 mL and the “effect on bladder capacity (in words)” value was “does not increase the bladder capacity”. In addition, in experiment [1], the “bladder capacity Before administration” value worked out at 1.06 ± 0.14 mL, the “bladder capacity (%) increase” value is recorded as −0.28 ± 5.3%, the “bladder capacity After administration” value came out at 1.05 ± 0.14 mL and the “effect on bladder capacity (in words)” value is recorded as “does not increase the bladder capacity”.
For the compound `CCN(CC)CC#CCOC(=O)C(O)(c1ccccc1)C1CCCCC1` (stereo not shown) [oxybutynin chloride], in experiment [2], the “bladder capacity Before administration” value came out at 0.76 ± 0.13 mL, the “bladder capacity (%) increase” value amounted to 6.9 ± 12.4%, the “bladder capacity After administration” value amounted to 0.78 ± 0.12 mL and the “effect on bladder capacity (in words)” value was “does not increase the bladder capacity”.
